Glass transition temperature data for 57 compounds are collected here from the PolyMetriX glass transition set.

Molecules are shown by their SMILES.

As for `*C(=O)CCCCCCCCC(=O)N1CC(C)N(*)CC1C` (repeat unit), the glass transition temperature is -60.50 °C.

For `*CC(*)OC(=O)CC(C)(C)c1ccccc1` (repeat unit), the glass transition temperature worked out at 20.00 °C.

As for `*CC(*)OC(=O)CC1CCCCC1` (repeat unit), the glass transition temperature came to 25.00 °C.

As for `*CC(*)OC(=O)CCCC1CCCCC1` (repeat unit), the glass transition temperature was -10.00 °C.

Regarding `*CC(*)OC(=O)OCC(Cl)(Cl)Cl` (repeat unit), the glass transition temperature was found to be 74.00 °C.

Consider `*CC(*)OC(=O)OCC(F)(F)F` (repeat unit), for which the glass transition temperature came out at 57.00 °C.

`*CC(*)OC(=O)c1ccc(OC)cc1` (repeat unit) displayed a glass transition temperature of 86.50 °C.

Compound `*CC(*)OC(=O)c1ccc(OCC)cc1` (repeat unit) showed a glass transition temperature of 70.00 °C.

For `*CC(*)OC(=O)c1ccc([Si](C)(C)C)cc1` (repeat unit), the glass transition temperature turned out to be 130.50 °C.

Take `*CC(*)OC(=O)c1cccc(C)c1` (repeat unit): the glass transition temperature stood at 49.00 °C.

Compound `*CC(*)OC(=O)c1cccc([N+](=O)[O-])c1` (repeat unit) had a glass transition temperature of 93.00 °C.

`*CC(*)OC(=O)c1cccc([Si](C)(C)C)c1` (repeat unit): the glass transition temperature stood at 80.00 °C.

Turning to `*CC(*)OC(=O)c1ccccc1Cl` (repeat unit), the glass transition temperature came out at 55.8 °C.

`*CC(*)OC(=O)c1cccnc1` (repeat unit) displayed a glass transition temperature of 86.50 °C.

In turn, `*CC(*)OCCCCCCCOc1ccc(-c2ccc(C#N)cc2)cc1` (repeat unit) returned a glass transition temperature of 13.00 °C.

On to `*CC(*)OCCOc1ccc(/N=N/c2ccc([N+](=O)[O-])cc2)cc1` (repeat unit), for which the glass transition temperature amounted to 54.00 °C.

Take `*CC(*)[Si](C)(C)Cc1ccccc1` (repeat unit): the glass transition temperature was -24.00 °C.

As for `*CC(*)c1c(C)cc(C)cc1C` (repeat unit), the glass transition temperature was 126.00 °C.

Regarding `*CC(*)c1c(F)c(F)c(P(=O)(O)O)c(F)c1F` (repeat unit), the glass transition temperature stood at 330.00 °C.

For the compound `*CC(*)c1cc(-c2ccc(C(=O)OC(C)CC)cc2)ccc1-c1ccc(C(=O)OC(C)CC)cc1` (repeat unit), the glass transition temperature was found to be 212.50 °C.

With `*CC(*)c1cc(-c2ccc(C(=O)OC(C)CCCCCC)cc2)ccc1-c1ccc(C(=O)OC(C)CCCCCC)cc1` (repeat unit), the glass transition temperature came to 102.00 °C.

The compound `*CC(*)c1cc(Br)ccc1OC` (repeat unit) returned a glass transition temperature of 86.00 °C.

For `*CC(*)c1cc(Br)ccc1OC(C)C` (repeat unit), the glass transition temperature is 35.00 °C.

Consider `*CC(*)c1cc(Br)ccc1OCCCC` (repeat unit), for which the glass transition temperature came to 47.00 °C.

In the case of `*CC(*)c1cc(C(=O)OCCCCCC)ccc1-c1ccc(OCCCCCCCC)cc1` (repeat unit), the glass transition temperature turned out to be 64.00 °C.

Regarding `*CC(*)c1cc(C(=O)OCCCCCCCCCC)ccc1-c1ccc(OCCCCCCCC)cc1` (repeat unit), the glass transition temperature worked out at 44.00 °C.

On to `*CC(*)c1cc(C(=O)OCCCCCCCCCCCC)ccc1-c1ccc(OCCCCCCCC)cc1` (repeat unit), for which the glass transition temperature amounted to 42.00 °C.

Regarding `*CC(*)c1cc(C(C)(C)C)ccc1C` (repeat unit), the glass transition temperature was 87.00 °C.

For the compound `*CC(*)c1cc(C(F)(F)F)cc(C(F)(F)F)c1` (repeat unit), the glass transition temperature came out at 116.00 °C.

As for `*CC(*)c1cc(C)cc(C)c1` (repeat unit), the glass transition temperature stood at 112.00 °C.

As to `*CC(*)c1cc(OC)c(OC(C)=O)c(OC)c1` (repeat unit), the glass transition temperature came out at 147.00 °C.

In turn, `*CC(*)c1ccc(/C(C)=N/O)cc1` (repeat unit) displayed a glass transition temperature of 134.00 °C.

The compound `*CC(*)c1ccc(/C(Cc2ccccc2)=N/O)cc1` (repeat unit) returned a glass transition temperature of 111.00 °C.

`*CC(*)c1ccc(B(Oc2ccc(-c3c(F)c(F)c(F)c(F)c3F)c3cccnc23)c2ccc(C(C)(C)C)cc2)cc1` (repeat unit): the glass transition temperature was 245.00 °C.

As for `*CC(*)c1ccc(B(Oc2ccc(-c3ccc(OC)cc3)c3cccnc23)c2ccc(C(C)(C)C)cc2)cc1` (repeat unit), the glass transition temperature was determined as 220.00 °C.

For `*CC(*)c1ccc(B(Oc2ccc(Cl)c3cccnc23)c2ccc(C(C)(C)C)cc2)cc1` (repeat unit), the glass transition temperature came to 238.00 °C.

`*CC(*)c1ccc(B(Oc2cccc3cccnc23)c2ccc(C(C)(C)C)cc2)cc1` (repeat unit) showed a glass transition temperature of 240.00 °C.

Compound `*CC(*)c1ccc(C(=O)C(F)(F)F)cc1` (repeat unit) displayed a glass transition temperature of 95.00 °C.

The compound `*CC(*)c1ccc(C(=O)CC)cc1` (repeat unit) showed a glass transition temperature of 102.00 °C.

Turning to `*CC(*)c1ccc(C(=O)CCCCCCC)cc1` (repeat unit), the glass transition temperature is 50.00 °C.

The compound `*CC(*)c1ccc(C(=O)CCN2CCCCC2)cc1` (repeat unit) displayed a glass transition temperature of 38.00 °C.

Regarding `*CC(*)c1ccc(C(=O)OC(C)C)cc1` (repeat unit), the glass transition temperature came out at 95.00 °C.

The compound `*CC(*)c1ccc(C(=O)OCC(C)C)cc1` (repeat unit) displayed a glass transition temperature of 90.00 °C.

Compound `*CC(*)c1ccc(C(=O)OCC)cc1` (repeat unit) came in with a glass transition temperature of 94.00 °C.

In turn, `*CC(*)c1ccc(C(=O)OCCCC)cc1` (repeat unit) displayed a glass transition temperature of 76.00 °C.

`*CC(*)c1ccc(C(=O)OCCCCCC)cc1` (repeat unit) yielded a glass transition temperature of 66.00 °C.

On to `*CC(*)c1ccc(C(=O)OCCN(CC)CC)cc1` (repeat unit), for which the glass transition temperature worked out at 74.00 °C.

As to `*CC(*)c1ccc(C(=O)c2ccc(OC)cc2)cc1` (repeat unit), the glass transition temperature turned out to be 103.00 °C.

Regarding `*CC(*)c1ccc(C(=O)c2ccccc2)cc1` (repeat unit), the glass transition temperature turned out to be 98.00 °C.

In the case of `*CC(*)c1ccc(C(C)(O)CCC)cc1` (repeat unit), the glass transition temperature stood at 135.00 °C.

Take `*CC(*)c1ccc(C(C)(O)CCCC)cc1` (repeat unit): the glass transition temperature amounted to 90.00 °C.

On to `*CC(*)c1ccc(C(C)=O)cc1` (repeat unit), for which the glass transition temperature was 115.50 °C.

`*CC(*)c1ccc(C(O)C(F)(F)F)cc1` (repeat unit): the glass transition temperature turned out to be 110.00 °C.

For `*CC(*)c1ccc(C(O)CCN(C)C)cc1` (repeat unit), the glass transition temperature was 43.00 °C.

The compound `*CCCCCCN(CC(F)(F)C(F)(F)C(F)(F)C(F)(F)C(F)(F)C(F)(F)C(F)(F)F)C(=O)C(F)(F)C(F)(F)C(F)(F)C(=O)N(*)CC(F)(F)C(F)(F)C(F)(F)C(F)(F)C(F)(F)C(F)(F)C(F)(F)F` (repeat unit) gave a glass transition temperature of 187.50 °C.

In turn, `*OC(F)(C(=O)[N]([Li])S(=O)(=O)C(F)(F)C(*)(F)F)C(F)(F)F` (repeat unit) showed a glass transition temperature of 67.00 °C.

In turn, `*Oc1ccc(S(=O)(=O)c2ccc(Oc3ccc(C(=C)c4ccc(*)cc4)cc3)cc2)cc1` (repeat unit) came in with a glass transition temperature of 167.00 °C.
